Laboratory results as given in the OPERA property sets (Mansouri et al. 2018).

Settings: not given

SMILES | melting point [°C] | log10 vapour pressure (mmHg) | ready biodegradability | boiling point [°C] | log10 Koc (L/kg) | log10 biodegradation half-life (days) | log10 Koa
COc1cc(C(=O)NCc2ccc(OCCN(C)C)cc2)cc(OC)c1OC | 189 |  |  |  |  |  | 
CCCCCCCCCCCCCCCO | 45.5 | -4.41 | readily biodegradable |  |  |  | 
CC(=O)Nc1ccc([N+](=O)[O-])cc1 | 216 |  |  |  |  |  | 
C[C@]12CC[C@H]3[C@@H](CCC4=CC(=O)CC[C@@H]43)[C@@H]1CC[C@@H]2O | 118 |  |  |  |  |  | 
O=c1n(CCCN2CCN(c3cccc(Cl)c3)CC2)nc2ccccn12 | 87 |  |  |  |  |  | 
Ic1cccc(-c2ccccc2)c1 | 26.5 |  |  |  |  |  | 
Cc1c(Cl)cccc1Nc1ncccc1C(=O)O | 234 |  |  |  |  |  | 
Cc1nccc2c1[nH]c1ccccc12 | 236 |  |  |  |  |  | 
CCOC(=O)C(CC)(CC)C(=O)OCC |  |  |  | 230 |  |  | 
CC(CC(=O)O)CC(=O)O | 87 |  |  |  |  |  | 
Cc1cc(Cl)ccc1OCC(=O)O | 120 | -5.23 | not readily biodegradable | 287 | 1.73 |  | 
Oc1ccc2cccc(Cl)c2c1 | 101 |  |  | 308 |  |  | 
CCCCCOC(=O)CCC(=O)OCCCCC | -10.8 |  |  |  |  |  | 
Cl.c1ccc(CC2=NCCN2)cc1 | 175 |  |  |  |  |  | 
COc1cc(C=O)cc(OC)c1O | 113 |  | readily biodegradable |  |  |  | 
Cc1ccc2ccc3cccc4ccc1c2c34 |  |  |  |  |  | 1.96 | 
CC(O)COC(C)COC(C)CO (configuration not stated) |  |  | not readily biodegradable |  |  |  | 
CC1(C)CC=CCC1 | -74.4 |  |  | 117 |  |  | 
C=C=CCCCC |  |  |  | 106 |  |  | 
CC(C)CN1CCOCC1 |  |  | not readily biodegradable | 181 |  |  | 

SMILES | melting point [°C] | log10 vapour pressure (mmHg) | ready biodegradability | boiling point [°C] | log10 Koc (L/kg) | log10 biodegradation half-life (days) | log10 Koa
CCCCCCCCCCCCCCCC(=O)OC(C)C | 13.5 | -4.25 |  |  |  |  | 
ClC(Cl)C(Cl)(Cl)Cl | -29 | 0.544 |  | 160 |  |  | 
Cc1ccc2sccc2c1 | 20.5 |  |  |  |  |  | 
Brc1ccc2ncccc2c1 | 24 |  |  | 281 |  |  | 
COCCN |  |  |  | 95 |  |  | 
Clc1ccc2c(c1)Oc1cc(Cl)ccc1O2 | 151 | -5.98 |  |  |  |  | 
COc1ccc([N+](=O)[O-])c(N)c1 | 131 |  |  |  |  |  | 
CC[C@H]1CCCC[C@H]1C |  |  |  | 154 |  |  | 
O=c1cc(-c2ccc(O)cc2)oc2cc(O)cc(O)c12 | 348 |  |  |  |  |  | 
Cc1occc1C(=O)Nc1ccccc1 | 110 | -6.82 |  |  | 2.48 |  | 
[Se]=C=[Se] | -45.5 |  |  | 126 |  |  | 
CCCC(=O)Cl | -89 |  |  | 102 |  |  | 
CCCC(C)(COC(N)=O)COC(=O)NC(C)C (configuration not stated) | 92 |  |  |  |  |  | 
O=C1c2ccccc2C(=O)N1CCBr | 82.5 |  |  |  |  |  | 
C[C@@H]1O[C@@H](O)[C@H](O)[C@H](O)[C@H]1O | 140 |  |  |  |  |  | 
O=C(Cl)c1ccccc1Cl | -4 |  |  | 238 |  |  | 
CCCOCCO |  | 0.494 |  | 150 |  |  | 
C=CC(=C)C | -146 | 2.74 | not readily biodegradable | 34 |  |  | 2.06
Cc1cc(O)cc(O)c1C | 136 |  |  | 284 |  |  | 

Same assay, conditions: fish

SMILES | log10 biotransformation half-life (days) | log10 BCF
[2H]C([2H])([2H])C([2H])([2H])C([2H])([2H])C([2H])([2H])C([2H])([2H])C([2H])([2H])C([2H])([2H])C([2H])([2H])C([2H])([2H])C([2H])([2H])C([2H])([2H])C([2H])([2H])C([2H])([2H])C([2H])([2H])C([2H])([2H])C([2H])([2H])[2H] | 1.47 | 
Brc1cc(Br)c(Br)cc1Br | 1.35 | 3.59
c1ccc2c(c1)c1ccccc1c1ccccc21 | -0.08 | 
Nc1cccc2cccc(N)c12 | -0.73 | 0.8
Nc1ccccc1[N+](=O)[O-] | -0.46 | 1
Cc1ccc2ccc3cccc4ccc1c2c34 | 0.11 | 
CC(C)CN1CCOCC1 |  | 0.25
C=CC(=C)C | -0.61 | 1.3
